Marks after values point to notes of the source that are not given here.
System: chicken embryos
Test: Metabolic profiling of blood plasma (GC-MS, LC-MS, OPLS-DA)
Format: in vivo, Gallus gallus domesticus
Description: Controls were injected with 20 μL vehicle only (DMSO).
Plasma was collected and stored at -70°C.
Metabolites in allantoic fluid and blood plasma were analyzed using gas chromatography-mass spectrometry (GC-MS) and liquid chromatography-mass spectrometry (LC-MS) as described in S1 Methods. Prior to GC-MS and LC-MS analysis, allantoic fluid (100 μL) and blood plasma (50 μL) were extracted. To each sample, 900 μL (allantoic fluid) or 450 μL (blood plasma) of extraction buffer (90/10 v/v methanol:water) including all internal standards were added. Standards for GC-MS were proline, succinic acid, glutamic acid, salicylic acid, alpha-ketoglutarate, putrescine, myristic acid, hexadecanoic acid, cholesterol, and sucrose. Standards for LC-MS were Val-Tyr-Val, Leu-enkephalin, sulfadimethoxine and reserpine. Samples were homogenized by shaking in a bead mill at a frequency of 30 Hz for 3 minutes and proteins were precipitated at +4°C on ice. The samples were centrifuged at +4°C, 14000 rpm, for 10 min. Then, 200 μL supernatant was transferred to a GC microvial and 200 μL was transferred to an LC microvial, and solvents were evaporated. Samples from the four replicate experiments were analyzed using in chronological order and within each replicate experiment the run order of the individual samples was randomized.
Multivariate statistical analyses of metabolite profiles were performed using the software package SIMCA-P version 13.0 (Umetrics, Umeå, Sweden). Data was centered and scaled to variance 1 (UV scaling) prior to modelling. To reduce unintended systematic variation caused by sample processing and instrument drift, GC-MS and LC-MS metabolite amounts (expressed as the area under the chromatographic peak) were normalized by Orthogonal Partial Least Squares analysis (O2PLS) prior to multivariate data analysis. O2PLS finds common (predictive) and unique (orthogonal) variation in two data matrices. If applied to find the common variation between the data matrix containing the measured metabolite concentrations and a matrix containing only the internal standards, the only common (predictive) variation expected is due to the unintended systematic variation. By deleting the contribution of the predictive latent variables, that variation can be removed from the data. Models obtained after this normalization contain in general less latent variables, and this simplification helps when deciding on the number of latent variables to be used. Following normalization, GC-MS and LC-MS data were analyzed together. Initially, a global Principal Component Analysis (PCA) was performed to get an overview of groups and trends and to identify outliers. Projections to latent structures by means of Orthogonal Partial Least Squares Discriminant Analysis (OPLS-DA) was used to model the relationship between the X-matrix (metabolite concentrations) and the Y matrix (class, i.e. exposure group or sex), and to find x-variables that were related to class belonging. OPLS-DA is a supervised prediction and regression method that rotates the projection plane to find the maximum covariance between the data and the class assignment. All groups were first analyzed together in a 5-class OPLS-DA and then each exposure group was analyzed against the control group in a 2-class OPLS-DA. Sex differences were analyzed both using the whole data set and in each group separately using 2-class OPLS-DA, with females and males as the two classes. Only variables with 80% or more nonzero values were included in the statistical models. […] The validity of each model was also checked using CV-ANOVA (ANOVA of the cross-validated residuals). A significance level of p < 0.05 was used. For each model, R ^2 X, R ^2 Y and Q ^2 values were calculated, where R ^2 X is a measure of the fraction of x variation modeled in the extracted latent variables, R ^2 Y is a measure of the fraction of y variation modeled and Q ^2 is an estimate of the predictive ability of the model and is calculated by cross-validation. […]

CN(CCOc1ccc(CC2SC(=O)NC2=O)cc1)c1ccccn1 (centres unmarked) [Rosiglitazone, rosiglitazone, reference compound]
Mean concentration relative to control, feature Win006_C03 (GC): 1.2*
Mean concentration relative to control, feature Win011_C02 (Isoleucine) (GC): 1.1
Mean concentration relative to control, feature Win027_C13 (GC): 0.9
Mean concentration relative to control, feature Win031_C03 (Citric acid) (GC): 1
Mean concentration relative to control, feature Win034_C08 (Tyrosine) (GC): 1
Mean concentration relative to control, feature Win034_C09 (Tyrosine) (GC): 1.1
Mean concentration relative to control, feature Win039_C07 (GC): 1.2
Mean concentration relative to control, feature Win043_C02 (Cystathionine) (GC): 1
Mean concentration relative to control, feature Win061_C01 (GC): 0.9
Mean concentration relative to control, feature Win066_C03 (GC): 1
Mean concentration relative to control, feature Win088_C02 (GC): 1
Mean concentration relative to control, feature 118.0284@2.480333 (C4H6O4) (LC): 0.8**
Mean concentration relative to control, feature 122.0486@0.675613 (LC): 1
Mean concentration relative to control, feature 126.0428@1.2278157 (Thymine) (LC): 1.0
Mean concentration relative to control, feature 146.0362@0.7772238 (LC): 1.1
Mean concentration relative to control, feature 159.0686@1.1608156 (LC): 1.1
Mean concentration relative to control, feature 164.0449@0.7694838 (LC): 1.1
Mean concentration relative to control, feature 202.1024@5.0303197 (C8H14N2O4) (LC): 1.1
Mean concentration relative to control, feature 203.1162@0.5130696 (LC): 1
Mean concentration relative to control, feature 213.2458@7.4887733 (LC): 1
Mean concentration relative to control, feature 215.047@1.6260729 (C5H14NO6P) (LC): 0.9*
Mean concentration relative to control, feature 226.0721@1.9460537 (LC): 1
Mean concentration relative to control, feature 231.0174@1.6241412 (LC): 0.8*
Mean concentration relative to control, feature 233.1265@2.535991 (LC): 1
Mean concentration relative to control, feature 250.1317@2.1334834 (LC): 1.2
Mean concentration relative to control, feature 260.0508@0.69984084 (LC): 0.8*
Mean concentration relative to control, feature 276.0173@1.6283482 (LC): 0.9
Mean concentration relative to control, feature 278.0939@1.3354088 (LC): 0.9
Mean concentration relative to control, feature 293.0903@1.5739433 (LC): 1
Mean concentration relative to control, feature 307.2147@7.5065937 (C18H29NO3) (LC): 0.9
Mean concentration relative to control, feature 310.178@7.5343466 (LC): 1
Mean concentration relative to control, feature 339.3861@9.528681 (LC): 1.2
Mean concentration relative to control, feature 342.2883@7.526812 (LC): 1
Mean concentration relative to control, feature 348.0675@1.5761927 (LC): 1
Mean concentration relative to control, feature 355.9454@0.68034226 (LC): 1
Mean concentration relative to control, feature 362.1467@0.8461036 (LC): 1.1
Mean concentration relative to control, feature 366.1431@1.4228548 (LC): 0.9*
Mean concentration relative to control, feature 373.296@9.044806 (LC): 1
Mean concentration relative to control, feature 375.3108@8.995564 (LC): 1
Mean concentration relative to control, feature 389.2686@9.046645 (LC): 1
Mean concentration relative to control, feature 407.0999@1.585909 (LC): 0.9*
Mean concentration relative to control, feature 412.135@2.4779084 (C17H24N4O6S) (LC): 0.8**
Mean concentration relative to control, feature 444.3607@10.33052 (LC): 0.9
Mean concentration relative to control, feature 471.9819@0.685074 (LC): 1
Mean concentration relative to control, feature 489.1508@8.562614 (LC): 0.7*
Mean concentration relative to control, feature 509.1184@2.4798179 (LC): 0.8**
Mean concentration relative to control, feature 525.2855@8.361063 (LC): 0.9
Mean concentration relative to control, feature 545.2492@8.463657 (LC): 0.9
Mean concentration relative to control, feature 558.4095@9.459733 (LC): 1.2*
Mean concentration relative to control, feature 565.1902@0.7699907 (LC): 1.1
Mean concentration relative to control, feature 577.2747@9.25652 (LC): 1.1
Mean concentration relative to control, feature 581.1643@0.77029324 (LC): 1.1
Mean concentration relative to control, feature 634.2403@1.9467853 (LC): 1
Mean concentration relative to control, feature 644.1614@0.7647065 (LC): 1.1
Mean concentration relative to control, feature 659.5483@11.4915495 (LC): 1.0
Mean concentration relative to control, feature 698.2598@1.3599721 (LC): 1.2*
Mean concentration relative to control, feature 700.5514@10.765638 (LC): 1.1
Mean concentration relative to control, feature 755.5465@10.73882 (LC): 1.4*
Mean concentration relative to control, feature 827.5078@8.831237 (LC): 1
Mean concentration relative to control, feature 875.4661@10.5661745 (LC): 1.0
Mean concentration relative to control, feature 1262.4865@1.947075 (LC): 1
Mean concentration relative to control, feature 1316.4163@1.9465046 (LC): 1.1*
Mean concentration relative to control, feature 1591.051@5.0189176 (LC): 0.8**
Mean concentration relative to control, feature 1591.388@5.0202384 (LC): 0.9*
Mean concentration relative to control, feature 1591.7203@5.018071 (LC): 0.9*

From article PMC4666608, “Metabolic Profiling of Chicken Embryos Exposed to Perfluorooctanoic Acid (PFOA) and Agonists to Peroxisome Proliferator-Activated Receptors” (PLoS ONE, 2015)
